Assay results: patent US9884040B2, “Desethylamiodarone for use in cancer treatment” (PÉCSI TUDOMÁNYEGYETEM, priority 2015, dated 2018)

Legend:
BMI1 = assay: Western blot of BMI1 expression in T24 cells; format: cell-based, human; conditions: T24 cells, 5, 10 and 15 μM, 24 h
Experimental: (§1) 10^6 cells were seeded into regular plates and treated as for the cell viability assay. Cells were harvested at intervals in a chilled lysis buffer containing 0.5 mM sodium-metavanadate, 1 mM ethylenediaminetetraacetic acid (EDTA) and protease inhibitor cocktail in phosphate-buffered saline (PBS). Probes were boiled and subjected to 10% sodium dodecyl sulphate polyacrylamide gel electrophoresis then transferred to nitrocellulose membranes. The membranes were blocked in 5% low fat milk for 1.5 h at room temperature then exposed to primary antibodies at 4° C. overnight in blocking solution. Appropriate horseradish peroxidase-conjugated secondary antibodies were used at a 1:5000 dilution (anti-mouse and anti-rabbit IgGs; Sigma-Aldrich, Steinheim, Germany) and visualized by enhanced chemiluminescence (Amersham Biosciences, Piscataway, N.J., USA). All experiments were repeated 3 times.
T24 cells were exposed to 5, 10 and 15 μM of DEA for 24 h intervals. Equal amounts of lysate protein were subjected to gel electrophoresis. GAPDH was used as loading control. Results are presented as representative immunoblots (top panel) and densitometric analysis of Western blots in bar diagrams (bottom graph). Data are expressed as the mean±1 SD, n=3 and presented as fold difference from control (medium). Significant difference from control: *p<0.05.

[1] = test system: 4T1 (mouse mammary carcinoma) cells; assay: MTT cell viability assay, 4T1; format: cell-based; conditions: 24 h and 48 h; 2.5, 5, 7.5 or 10 μM; vs untreated control
Experimental: The cells were seeded into 96-well plates at a starting density of 10^4 cells per well and cultured overnight before DEA was added to the medium for 24 h and 48 h. […] The amount of blue formazan dye formed from MTT+ was proportional to the number of live cells, and was determined with an Anthos Labtech 2010 ELISA reader at 550 nm. All experiments were run in at least 4 replicates and repeated 3 times. The effect of desethylamiodarone was measured in T24 (human urinary bladder carcinoma), A549 (human lung adenocarcinoma epithelial), B16F10 (mice melanoma), HeLa (human cervix adenocarcinoma), 4T1 (mouse mammary carcinoma) cell lines. Cells were treated with increasing concentrations of desethylamiodarone for 24 and 48 h. Cell growth was assessed by measuring metabolic activity, which reflects viability in the MTT-test in the course of 24 h, 48 h of continued exposure to desethylamiorarone. The untreated cells served as negative controls. The viability of the cells, was lower in all DEA-treated than in the control group, with the difference being statistically significant. […] 4T1 cells were incubated with the indicated concentrations (2.5, 5, 7.5 or 10 μM) of desethylamiodarone for 24 h and 48 h and cell viability was measured by MTT assay (filled bars). Untreated cells served as controls. Data represent means±S.E.M. of three independent experiments, each running in four replicates.

[2] = test system: T24/83 human urinary bladder carcinoma cell line; assay: Colony formation assay, T24; format: cell-based; conditions: 7 days; 500 nM-3 μM
Experimental: Cells were trypsinized and plated in triplicate into 6-well plates at 500 cells/well. Cells were treated with different concentration of Dea. After 7 days of incubation, cells were washed and stained with Coomassie-blue, and the colonies containing more than 50 cells were counted. The number of colonies were determined and normalized to the number of colonies in controls.
To assess the recovery ability of cells that survived treatment, long-term (7 days) colony formation assay was performed.
Untreated cells served as controls. The results are mean±SEM of 3 independent experiments performed in at least quadruplicate. p<0.01 compared to the corresponding control group. The data shown on FIG. 5 provide evidence that DEA can be useful to treat bladder cancer.

[3] = test system: mitochondrial permeability transition; conditions: applicants' previous published results; cited from earlier work
[4] = cited from earlier work
[5] = after administration of amiodarone; cited from earlier work
[6] = test system: DU-145 prostate cancer cell line; assay: Cisplatin sensitivity of DU-145 cells with DEA (MTT); format: cell-based; conditions: increasing cisplatin, 48 hours, presence or absence of 10 μM DEA
Experimental: The cells were seeded into 96-well plates at a starting density of 10^4 cells per well and cultured overnight before DEA was added to the medium for 24 h and 48 h. The medium was changed to a fresh one containing 0.5% of 3-[4,5-dimethylthiazol-2-yl]-2,5-diphenyl-tetrazolium bromide (MTT+) for an additional 3 hours, then the MTT+ reaction was terminated by adding HCl to 10 mM final concentration. The amount of blue formazan dye formed from MTT+ was proportional to the number of live cells, and was determined with an Anthos Labtech 2010 ELISA reader at 550 nm. All experiments were run in at least 4 replicates and repeated 3 times.
DU-145 cells were exposed to increasing concentrations of cisplatin 48 hours in presence or absence of 10 μM DEA. Viability of the cells was detected by the MTT method. Untreated cells served as controls.

[7] = test system: T24 human bladder cancer cell line; assay: Radiotherapy plus DEA, colony formation, T24; format: cell-based; conditions: 1Gy or 2Gy single dose alone or with 500 nM-3 μM DEA
Experimental: Cells were trypsinized and plated in triplicate into 6-well plates at 500 cells/well. Cells were treated with different concentration of DEA and irradiated with a dose of 1.0 and 2.0 Grays. A telecobalt (Therathron 780 C) external irradiation equipment (average photon energy of 1.25 MeV) will be applied for irradiating cells. After 7 days of incubation, cells were washed and stained with Coomassie-blue, and the colonies containing more than 50 cells were counted. The number of colonies were determined and normalized to the number of colonies in controls.
To examine the effects of a DEA on the effectiveness of radiotherapy the cells were treated with 1Gy or 2Gy single dose irradiation alone or combined with 500 nM-3 μM DEA.
The cells were treated with 1Gy or 2Gy single dose irradiation alone or combined with 500 nM-3 μM DEA. Untreated cells served as controls. The results are mean±SEM of 3 independent experiments performed in at least quadruplicate. P<0.05 compared to the corresponding control group.

AKT (protein kinase B) = assay: Western blot of Akt phosphorylation; format: cell-based, human; conditions: 5-10-15 μM, 6 hours; T24, B16F10 cell lines
Experimental: as §1
To determine the downstream consequences of DEA treatment, we examined the phosphorylation status of AKT (protein kinase B), GSK-3β and p42/44 mitogen-activated protein kinase (MAPK) (ERK1/2) by immunoblotting in T24 (human urinary bladder carcinoma), B16F10 (mice melanoma) cell lines. Cells were cultured in the presence of 5-10-15 μM DEA for 6 hours. The cells were prepared and western blot analysis was carried out to perform both phosphorylated and non-phosphorylated forms of the previously listed proteins. […]

With `CCCCc1oc2ccccc2c1C(=O)c1cc(I)c(OCCNCC)c(I)c1` [DEA, (2-butyl-3-benzofuranyl)[4-[2-(ethylamino)ethoxy]-3,5-diiodophenyl]-methanone] the BMI1 expression (BMI1) was “significantly suppresses BMI1 expression”, the “Viability of 4T1 cells (MTT)” value [1] was “Significantly different from control group at p<0.05” and the “Colony formation, T24” value [2] was “significant decrease in the number and the size of colonies”. For the same compound, the Mitochondrial permeability transition [3] was “caused mitochondrial permeability transition”, the Plasma protein binding [4] was “strongly bound to plasma proteins” and the “Concentration in the lungs” value [5] was “can reach mM concentrations”. The “Cisplatin sensitivity of DU-145 cells (MTT)” value [6] was “sensitizes DU-145 prostate cancer cells for cisplatin”, the “Radiosensitization, colony formation, T24” value [7] was “sensitize bladder cancer to irradiation” and the “Akt (Ser473) phosphorylation” value (AKT (protein kinase B)) was “repressed Akt (Ser473) phosphorylation in a concentration-dependent manner”.
